In brackets after ≈: the same amount, converted by molar mass.

Data set [1] concerns the target T1, human FABP5 (Homo sapiens, UniProt Q01469).
T1 construct: FABP5 was purified and delipidated as described previously; made in house
Particulars: cited from earlier work.

For data set [2], the target named is T1, human FABP5. In words: Fluorescence displacement assay with NBD-stearate. Type of data set: binding. Particulars: test compound 10 µM, NBD-stearate 1 µM. The protocol:
FABP5 was purified and delipidated as described previously. FABP5 (30 µg), NBD-stearate (1 µM), and a competitor test compound were incubated in 30 mM Tris-HCl, 100 mM NaCl buffer (pH 7.6). Competitors included arachidonic acid, BMS309403, 48 test compounds from ChemDiv library, SB-FI-26 and SB-FI-49. The initial assay was run with buffer (30 mM Tris-HCl buffer), negative controls (buffer and NBD-stearate), positive controls (buffer, NBD-stearate, FABP5), and experimental wells with a variable test compound added (arachidonic acid or one of the 48 test compounds) at 10 µM. […] The fluorescent assays were tested in the wells of Microtest 96-well Assay Plates, Optilux (BD Biosciences, Franklin Lakes, NJ) and loss of fluorescence intensity was measured with a FLUOstar OPTIMA spectrofluorometer set to excitation and emission wavelengths of 460 nm and 544 nm, respectively. […] The Kd of NBD-stearate for FABP5 had been determined previously through incubating FABP5 with increasing concentrations of NBD-stearate.

A further data set is described as follows: Solubility in DMSO. Type of data set: physicochemical. Conditions: in DMSO at 25°C.
The next data set concerns CB1 receptors. Kind of data set: Patch-clamp electrophysiology in brain slices (EPSCs of dorsal raphe 5-HT neurons). Type of data set: cell-based. Particulars: bath application 10 µM; DR 5-HT neurons; n = 8; mean ± SEM. The protocol:
Whole-cell-voltage clamp recordings of dorsal raphe (DR) serotonin (5-HT) neurons were performed as previously described. Briefly, DR neurons were visualized using an upright microscope (BX 51 WI, Olympus, Tokyo, Japan) equipped with a differential interference contrast and infrared imaging system. Somatic recordings from DR neurons were obtained with path electrodes ([…]) back-filled with potassium gluconate based internal solution of the following composition: 120 mM potassium gluconate, 10 mM KCl, 10 mM Na2-phosphocreatine, 10 mM HEPES, 1 mM MgCl2, 1 mM EGTA, 2 mM Na2-ATP, 0.25 mM Na-GTP, pH 7.3 (Adjusted with KOH; Osmolarity, 280 to 290 mOsmol/l). All the recordings were conducted in the presence of GABAA receptor antagonist picrotoxin (100 µM). Excitatory postsynaptic currents (EPSCs) were evoked with a single square stimulus (intensity, 1 to 10 V, duration, 100 to 200 µs) delivered via a glass stimulating electrode. […]
The amplitude of EPSCs was determined by measuring the average current during a 2-ms period at the peak of each EPSC and subtracted from the baseline current determined during a 5-ms time window before the stimulus. All EPSC amplitudes were normalized to the mean baseline amplitude recorded for at least 10 min before drug application. […]
Background: Patch clamp records ionic current or voltage across a cell membrane.

The target of the next data set is T2, PPARα (Homo sapiens, UniProt Q07869).
T2 construct: expressed in transfected cells; host or cells: HeLa
T2 sequence (Q07869 1-468): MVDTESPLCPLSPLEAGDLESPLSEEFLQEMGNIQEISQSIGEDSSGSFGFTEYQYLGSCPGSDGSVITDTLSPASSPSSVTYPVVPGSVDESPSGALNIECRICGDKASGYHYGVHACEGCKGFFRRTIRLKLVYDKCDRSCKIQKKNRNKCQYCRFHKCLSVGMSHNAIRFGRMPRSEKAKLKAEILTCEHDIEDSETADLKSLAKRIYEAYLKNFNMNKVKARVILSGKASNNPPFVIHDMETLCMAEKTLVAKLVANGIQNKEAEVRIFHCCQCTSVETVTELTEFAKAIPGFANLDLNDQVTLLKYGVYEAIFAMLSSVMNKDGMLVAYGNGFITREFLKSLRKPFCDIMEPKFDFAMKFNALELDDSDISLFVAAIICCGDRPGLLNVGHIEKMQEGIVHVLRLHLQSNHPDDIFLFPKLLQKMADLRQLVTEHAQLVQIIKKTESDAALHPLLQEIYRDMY
Kind of data set: PPARα transactivation in HeLa cells. Type of data set: cell-based. Conditions: reporter system, 6 hrs. The protocol: (§1) PPARα and PPARγ transactivation assays were performed in HeLa cells exactly as described. Briefly, cells were transfected with the PPAR reporter system, incubated with GW7647, rosiglitazone, or SB-FI-26 for 6 hrs, followed by measurement of luciferase and β-galactosidase activity using a luminometer as described.

In a further data set the target is T3, PPARγ (Homo sapiens, UniProt P37231).
T3 construct: expressed in transfected cells; host or cells: HeLa
T3 sequence (P37231 1-505): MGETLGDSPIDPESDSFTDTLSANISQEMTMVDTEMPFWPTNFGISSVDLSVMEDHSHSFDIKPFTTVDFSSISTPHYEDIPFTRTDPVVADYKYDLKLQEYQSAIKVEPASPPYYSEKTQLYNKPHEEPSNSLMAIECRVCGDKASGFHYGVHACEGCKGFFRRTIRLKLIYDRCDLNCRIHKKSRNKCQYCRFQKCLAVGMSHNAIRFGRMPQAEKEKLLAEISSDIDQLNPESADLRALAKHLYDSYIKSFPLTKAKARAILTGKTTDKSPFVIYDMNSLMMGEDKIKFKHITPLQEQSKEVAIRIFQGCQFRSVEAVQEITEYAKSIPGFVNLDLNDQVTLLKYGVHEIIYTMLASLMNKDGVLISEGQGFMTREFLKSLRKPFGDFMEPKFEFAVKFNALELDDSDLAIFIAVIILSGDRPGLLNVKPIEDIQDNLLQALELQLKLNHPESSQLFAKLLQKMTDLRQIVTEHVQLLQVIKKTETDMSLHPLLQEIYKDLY
Kind of data set: PPARγ transactivation in HeLa cells. Type of data set: cell-based. Conditions: reporter system, 6 hrs. The procedure:
as §1

The test system of another data set is AEA uptake in HeLa cells. In words: AEA uptake in HeLa cells. Type of data set: cell-based. The protocol: AEA uptake assays in wild-type and FABP5 knockdown HeLa cells were performed exactly as described.
A further data set deals with T4, rat FAAH (Rattus norvegicus, UniProt P97612).
T4 construct: expressed in transfected cells; host or cells: HeLa (homogenates)
T4 sequence (P97612 1-579): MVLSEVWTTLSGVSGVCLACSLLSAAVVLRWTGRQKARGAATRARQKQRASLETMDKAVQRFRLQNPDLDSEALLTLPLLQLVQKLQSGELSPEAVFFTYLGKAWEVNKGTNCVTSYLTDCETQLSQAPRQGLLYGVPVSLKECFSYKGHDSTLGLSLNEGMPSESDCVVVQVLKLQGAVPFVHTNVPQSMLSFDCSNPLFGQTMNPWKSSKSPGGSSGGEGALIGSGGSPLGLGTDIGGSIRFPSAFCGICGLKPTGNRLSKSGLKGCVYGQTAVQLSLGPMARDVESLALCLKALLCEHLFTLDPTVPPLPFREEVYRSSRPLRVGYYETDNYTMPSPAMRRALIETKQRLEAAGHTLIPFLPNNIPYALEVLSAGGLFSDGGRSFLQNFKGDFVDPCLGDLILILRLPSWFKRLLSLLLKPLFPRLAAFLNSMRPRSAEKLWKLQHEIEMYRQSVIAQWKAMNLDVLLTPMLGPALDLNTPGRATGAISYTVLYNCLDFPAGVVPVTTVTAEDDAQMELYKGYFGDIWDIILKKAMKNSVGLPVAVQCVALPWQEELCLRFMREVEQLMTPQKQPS
Kind of data set: FAAH enzyme assay ([14C]AEA hydrolysis in HeLa homogenates). It is filed as biochemical. Particulars: FAAH-transfected HeLa homogenates. The protocol: Enzyme assays measuring the hydrolysis of [^14C]AEA in the presence of SB-FI-26 or the FAAH inhibitor URB597 were carried out in HeLa homogenates expressing rat FAAH as described.

Data set [3] relates to male C57Bl6 mice. Kind of data set: Formalin test. Type of data set: in vivo. The protocol:
(§2) We used male C57Bl6 mice (22–30 g, Taconic Farms) for all experiments. The animals were group housed at room temperature and kept on a 12∶12 hour light∶dark cycle with ad libitum access to water and food. The animals were habituated to the experimental room for one week before testing.
Mice were habituated to the observation chamber (Plexiglas box, 25 cm×25 cm×25 cm) for 30 min prior to formalin injection. The mice subsequently received an injection of formalin (2.5% in saline, 20 µl) into the plantar surface of the right hind paw using a 27 gauge needle. The animals were immediately placed back into the observation chamber and nocifensive behavior (time spent licking or biting the paw) was recorded for 60 min. The formalin test consists of two phases with the first phase (0–5 min) reflecting nociceptor activation and the second phase (15–45 min) reflecting an inflammatory pain response.

Data set [4] relates to male C57Bl6 mice. Kind of data set: Carrageenan-induced paw edema and thermal hyperalgesia. Type of data set: in vivo. The protocol: as §2
Paw edema was induced by injecting 1% λ-carrageenan (20 µl, in sterile saline) into the plantar surface of the left hind paw and a control solution of saline into the right hind paw using a 27 gauge needle. Paw diameters were measured before carrageenan injection and 4 hours after injection using digital electronic calipers (Fisher) and expressed to the nearest ±0.01 mm. SB-FI-26 (20 mg/kg, i.p.) was dissolved in ethanol∶emulphor∶saline (1∶1∶18), requiring sonication and gentle heating for solubilization, and administered 45 min prior to injection of carrageenan. The cannabinoid receptor antagonists, rimonabant and SR144528 (3 mg/kg, i.p.), in ethanol∶emulphor∶saline (1∶1∶18), were injected 15 min before the FABP inhibitor. Edema is reported as the change in paw diameter at 4 hr over the baseline. Changes in paw diameter of saline-injected contralateral paws were negligible. Thermal hyperalgesia measured the latency to withdraw the paw from a focused beam of radiant heat applied to the plantar surface of the hind paw using a Hargreaves plantar apparatus (Ugo Basile) set at an intensity of 3.0. For each mouse, the average latencies consisted of three trials spaced at least 5 minutes apart. The mice were habituated to the test chamber for 30 min. The cutoff time was set at 30 sec.
For orientation: In the carrageenan paw model, swelling and tenderness develop within hours.

T1 sequence (Q01469 whole entry): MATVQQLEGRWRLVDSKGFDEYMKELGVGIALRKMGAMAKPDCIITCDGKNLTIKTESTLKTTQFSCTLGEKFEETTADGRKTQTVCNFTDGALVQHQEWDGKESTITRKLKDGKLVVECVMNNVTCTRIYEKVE

`CCCCCCC(CCCCCCCCCCC(=O)O)N(C)c1ccc([N+](=O)[O-])c2nonc12` (centres unmarked) [NBD-stearate, 12-N-methyl-(7-nitrobenz-2-oxa-1,3-diazo)aminostearic acid]: the Kd (usually the equilibrium constant for the complex coming apart) on human FABP5 [1] (one site binding analysis, determined previously, read-out: Kd of NBD-stearate for FABP5) was 160 nM.
For the compound `Cn1c(C(=O)O)c(CC(=O)N2CCC(Cc3ccccc3)CC2)c2ccccc21` [SB-FI-31], the inhibition (commonly the change of the read-out against control, counted positive when it falls) at 10 µM at human FABP5 [2] was at least 50%.
Same read-out and setting: to `COc1cccc([C@@H]2Oc3ccccc3[C@@H]3CC(c4cccs4)=CN32)c1CC(=O)O` [SB-FI-19] belongs at least 50%.
For the compound `CCc1c(-c2ccccc2)c(-c2ccccc2)nn1-c1ccccc1-c1cccc(OCC(=O)O)c1` [BMS309403, reference compound], the solubility – broadly, the dissolved amount per volume that the medium holds – in “Solubility in DMSO” amounted to 1000 µM (≈ 475 µg/mL).
On to `O=C(O)[C@H]1[C@@H](c2ccccc2)[C@H](C(=O)Oc2cccc3ccccc23)[C@@H]1c1ccccc1` [SB-FI-26, α-Truxillic acid 1-naphthyl ester], for which the solubility in “Solubility in DMSO” was 1000 µM (≈ 422 µg/mL). Moreover, the “amplitude of EPSCs” value in the data set with CB1 receptors was 107±6.7 % of baseline. Besides, at PPARα, the “activation of PPARα” value is given as around 2 fold. The “activation of PPARγ” value on PPARγ is recorded as around 3 fold. For the same compound, the AEA uptake entry with AEA uptake in HeLa cells (HeLa cells bearing a knockdown of FABP5 (shRNA)) is “failed to reduce AEA uptake”. The “cellular AEA accumulation (AEA uptake)” value in the data set on AEA uptake in HeLa cells (wild-type HeLa cells) was “significantly inhibited cellular AEA accumulation”. Moreover, at rat FAAH, the “inhibition of FAAH (AEA hydrolysis)” value is recorded as “does not inhibit FAAH”. Further, the “nocifensive behavior, first phase of the formalin test” value with male C57Bl6 mice [3] (20 mg/kg, i.p., first phase 0–5 min) is recorded as “significantly reduced nocifensive behavior”. In addition, in the data set with male C57Bl6 mice [3] (intraplantar injection of 20 µg, no formalin), the “nocifensive behavior when administered alone” value is recorded as “did not evoke nocifensive behavior”. In addition, the carrageenan-induced thermal hyperalgesia entry in the data set on male C57Bl6 mice [4] (20 mg/kg, i.p., 45 min prior to carrageenan) was “significantly reduced”. In addition, in the data set on male C57Bl6 mice [4] (20 mg/kg, i.p., 45 min prior to carrageenan, paw diameter at 4 hr), the carrageenan-induced paw edema entry is given as “significantly reduced”. The “antinociceptive and anti-edematous effects after pretreatment with rimonabant and SR144528” value in the data set on male C57Bl6 mice [4] (SB-FI-26 20 mg/kg i.p., antagonists 3 mg/kg i.p. 15 min before) was “completely reversed”. In addition, in the data set on male C57Bl6 mice [4] (without carrageenan), the “paw edema when administered alone” value is recorded as “did not induce paw edema”.
`O=C(O)[C@H]1[C@@H](c2ccccc2)[C@H](C(=O)Oc2cccc3ccccc23)[C@@H]1c1ccccc1` [SB-FI-49, γ-Truxillic acid 1-naphthyl ester] showed a solubility in “Solubility in DMSO” of 200 µM (≈ 84.5 µg/mL).
With `O=C(O)[C@H]1CC(=O)N(Cc2ccc3c(c2)OCO3)/C(=N/c2ccc(F)cc2)S1` [SB-FI-27], the inhibition at 10 µM on human FABP5 [2] was at least 50%.
Take `CCCCC/C=C\C/C=C\C/C=C\C/C=C\CCCC(=O)O` [arachidonic acid]: at human FABP5 [1] (arachidonic acid, positive control, binding to FABP5, ref not given), the Ki (in general, a dissociation constant, usually derived from enzyme kinetics or from competition with a known ligand) is 130 nM.

Values taken from publication PMC3517626, “Targeting Fatty Acid Binding Protein (FABP) Anandamide Transporters – A Novel Strategy for Development of Anti-Inflammatory and Anti-Nociceptive Drugs” (PLoS ONE, 2012).
